Experimental data taken from patent US20210322412A1, “METHODS AND COMPOSITIONS FOR TREATING A CORONAVIRUS INFECTION” (priority 2020, published 2021).

Key:
[1] = target: human CCR5 receptors (Homo sapiens, UniProt P51681); assay: CCR5 inhibitory activity; format: binding; conditions: Receptor CCR5
Method: (§1) The CCR2 and CCR5 inhibitory activity of (4-((3R,4R)-3-methoxytetrahydro-pyran-4-ylamino)piperidin-1-yl)(5-methyl-6-(((2R,6S)-6-(p-tolyl)tetrahydro-2H-pyran-2-yl)methylamino)pyrimidin-4-yl)methanone citrate was evaluated against human CCR2 receptors and human CCR5 receptors.

[2] = target: human CCR2 receptors (Homo sapiens, UniProt P41597); assay: CCR2 inhibitory activity; format: binding; conditions: Receptor CCR2
Sequence of human CCR2 receptors (P41597 whole entry): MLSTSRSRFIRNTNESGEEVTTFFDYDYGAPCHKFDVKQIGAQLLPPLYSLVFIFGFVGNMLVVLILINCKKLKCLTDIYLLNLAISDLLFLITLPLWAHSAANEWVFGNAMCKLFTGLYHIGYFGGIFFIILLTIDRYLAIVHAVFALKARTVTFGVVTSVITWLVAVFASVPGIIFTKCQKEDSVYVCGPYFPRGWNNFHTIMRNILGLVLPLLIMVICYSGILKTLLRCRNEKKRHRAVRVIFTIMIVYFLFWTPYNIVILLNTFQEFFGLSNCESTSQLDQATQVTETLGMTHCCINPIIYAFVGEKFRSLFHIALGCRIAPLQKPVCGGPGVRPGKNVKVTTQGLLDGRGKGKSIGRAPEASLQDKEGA
Method: as §1

[3] = Sorption behavior (dynamic vapour sorption isotherms); format: physicochemical
Method: Sorption isotherms were generated using an IGAsorp water sorption monitor from Hiden Isochema. Adsorption and desorption isotherms were obtained at 25° C. with 10% r.h. step intervals ranging from 10% r.h. to 90% r.h.
For BR salt form only: Sorption isotherms were registered on a DVS-1 water sorption monitor from Surface Measurement Systems.

Sequence of human CCR5 receptors (P51681 whole entry): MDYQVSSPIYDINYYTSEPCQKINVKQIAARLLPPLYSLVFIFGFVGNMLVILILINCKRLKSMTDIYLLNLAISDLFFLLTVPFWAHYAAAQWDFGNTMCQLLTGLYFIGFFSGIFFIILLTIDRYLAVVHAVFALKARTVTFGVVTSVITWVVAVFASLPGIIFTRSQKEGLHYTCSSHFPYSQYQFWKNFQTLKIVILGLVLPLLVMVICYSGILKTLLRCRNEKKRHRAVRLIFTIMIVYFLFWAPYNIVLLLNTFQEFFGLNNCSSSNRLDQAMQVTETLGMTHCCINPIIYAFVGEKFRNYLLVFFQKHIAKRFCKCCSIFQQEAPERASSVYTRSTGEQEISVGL

CO[C@H]1COCC[C@H]1NC1CCN(C(=O)c2ncnc(NC[C@H]3CCC[C@@H](c4ccc(C)cc4)O3)c2C)CC1.O=C(O)CC(O)(CC(=O)O)C(=O)O [Compound 1, (4-((3R,4R)-3-Methoxytetrahydro-pyran-4-ylamino)piperidin-1-yl)(5-methyl-6-(((2R,6S)-6-(p-tolyl)tetrahydro-2H-pyran-2-yl)methylamino)pyrimidin-4-yl)methanone citrate]
IC50 [1]: 88 nM
Ki [1]: 75 nM
IC50 [2]: 50 nM
Ki [2]: 4.2 nM
state of the compound after the sorption experiment ([3]; after the sorption experiment): still remains as solid material
stability against relative humidity ([3]; relative humidity, 25° C.): up to 80%
uptake of water ([3]; sorption experiment, relative humidity up to 80%, uptake reversible): 2.6%
